Laboratory results as given in patent US20100035868A1, “METHODS OF TREATMENT OF UTERINE PATHOLOGICAL CONDITIONS” (MEDICAL RESEARCH COUNCIL, priority 2001, published 2010).
Like-named read-outs stand apart in the source and are kept apart here.

Experiments:
[1] = target: T1, COX-2 (Homo sapiens, UniProt P35354); conditions: cited from earlier work
T1 sequence (P35354 18-604): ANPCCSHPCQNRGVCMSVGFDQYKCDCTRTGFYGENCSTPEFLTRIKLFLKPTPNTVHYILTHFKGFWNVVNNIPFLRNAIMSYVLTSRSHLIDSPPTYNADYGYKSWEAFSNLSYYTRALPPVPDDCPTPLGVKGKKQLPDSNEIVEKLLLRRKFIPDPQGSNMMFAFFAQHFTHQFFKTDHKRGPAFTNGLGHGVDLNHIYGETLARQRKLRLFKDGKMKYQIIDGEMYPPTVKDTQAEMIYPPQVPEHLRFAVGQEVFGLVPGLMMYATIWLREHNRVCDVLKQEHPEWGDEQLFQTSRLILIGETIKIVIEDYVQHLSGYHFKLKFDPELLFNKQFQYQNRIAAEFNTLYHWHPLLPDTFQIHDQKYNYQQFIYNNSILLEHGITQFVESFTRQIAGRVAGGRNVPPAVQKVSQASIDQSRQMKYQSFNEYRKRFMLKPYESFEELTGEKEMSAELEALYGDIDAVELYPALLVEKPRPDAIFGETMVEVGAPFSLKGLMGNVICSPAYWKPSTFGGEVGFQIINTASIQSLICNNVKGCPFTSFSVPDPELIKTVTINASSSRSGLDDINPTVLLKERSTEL

[2] = tested on: EP2/EP4 receptors; test: cAMP generation in cultured normal secretory phase endometrium after PGE2 stimulation; format: cell-based, human; conditions: normal secretory phase endometrium (n=6), 300 nM PGE2 for 5 min, IBMX 1 mM; treated/untreated
Protocol: (§1) In vitro culture and cAMP measurement. Endometrial tumour tissue (n=6; two well, two moderately and two poorly differentiated adenocarcinomas) and normal secretory phase endometrium (n=6) were minced finely with scissors and incubated in 2 ml RPMI (Sigma) medium containing 10% fetal calf serum, 0.3 mg/ml L-glutamine, 100 IU penicillin, 100 μg streptomycin and 3 μg/ml indomethacin, for 1.5 hrs at 37C in humidified 5% CO2. Thereafter samples were incubated in the same medium containing IBMX (Sigma) to a final concentration of 1 mM for 30 min at 37C and then stimulated for 5 min with 300 nM PGE2. Control treatments received no PGE2. Tissue was harvested by centrifugation at 2000 g. The supernatant was discarded and the tissue homogenised in 0.1 M HCl. cAMP concentration was quantified by ELISA using a cAMP kit (Biomol; Affiniti, Exeter, UK) and normalised to protein concentration of the homogenate. Protein concentrations were determined using protein assay kits (Bio-Rad, Hemel Hempstead, UK). The data are presented as fold induction of cAMP following treatment with PGE2. Fold induction was calculated by dividing cAMP values for the PGE2-treated samples by the value for the untreated sample.

[3] = tested on: EP2/EP4 receptors; test: cAMP generation in cultured endometrial adenocarcinoma tissue after PGE2 stimulation; format: cell-based, human; conditions: endometrial adenocarcinoma tissue (n=6), 300 nM PGE2 for 5 min, IBMX 1 mM; treated/untreated
Protocol: as §1

CS(=O)(=O)Nc1ccc([N+](=O)[O-])cc1Oc1ccccc1 [Nimesulide, N-(4-nitro-2-phenoxyphenyl)methane sulfonamide]
more specific for COX-2 inhibition than for COX-1 inhibition [1]: 100 fold

CCCCC[C@H](O)/C=C/[C@H]1[C@H](O)CC(=O)[C@@H]1C/C=C\CCCC(=O)O [PGE2, prostaglandin E2]
fold induction of cAMP generation in response to PGE2 [2]: 1.15±0.05
fold induction of cAMP generation in response to PGE2 [3]: 3.42±0.46

CS(=O)(=O)Nc1cc2c(cc1Sc1ccc(F)cc1F)C(=O)CC2 [L 475 L337]
more specific for COX-2 inhibition than for COX-1 inhibition ([1]; COX-2 versus COX-1): 500 fold
